Entries after “also recorded” stand apart in the source; their conditions may differ.
Experiments:
[1] = system: S. aureus ATCC 29213; assay: Co-culture on fosfomycin-containing blood agar: growth of fosfomycin-resistant mutant colonies; type: cell-based, Staphylococcus aureus; conditions: ≈10^7 CFU S. aureus on 0.2 μm filter, blood agar with 50 μg/mL fosfomycin, no non-pathogenic microorganism
Protocol: (§1) A 5 McFarland suspension of Corynebacterium aurimucosum CIP 102616 was prepared from a 48 h-culture on Columbia 5% sheep blood agar at 35+/−2° C., and 300 μl of this suspension (≈10^7 CFU) were inoculated by swabbing on a 90 mm diameter blood agar plate containing 50 μg/mL of fosfomycin; 300 μl of saline was inoculated as “negative control” (fosfomycin-containing agar plate not inoculated with C. aurimucosum). A 10 McFarland suspension of S. aureus (ATCC 29213 or NCTC 12493) was prepared as described in Example 1, and 20 μl drops of this suspension (≈10^7 CFU) were spread out on a 47-mm diameter, 0.2 μm filter placed on top of the agar plate. Plates were incubated at 35+/−2° C., and the growth of fosfomycin-resistant mutants was determined as described in Example 1. Fosfomycin MIC values of bacteria forming fosfomycin-resistant colonies on “negative-control” plates were determined using the agar dilution method.
(§2) Serial 1/5 dilutions were prepared from a 100 McFarland suspension of C. aurimucosum and 250 μl of each bacterial suspension was inoculated by swabbing on a 90 mm diameter blood agar plate containing 50 μg/mL of fosfomycin, in order to obtain ≈10^9, ≈2×10^8, ≈4×10^7, ≈8×10^6, ≈1.6×10^6, ≈3.2×10^5, ≈6.4×10^4, ≈1.3×10^4, ≈2.5×10^3, ≈5×10^2, ≈10^2, and ≈20 CFU per plate. Materials and methods were otherwise as described in Example 2. […]

[2] = system: S. aureus NCTC 12493; assay: as above; type: cell-based, Staphylococcus aureus; conditions: ≈10^7 CFU S. aureus on 0.2 μm filter, blood agar with 50 μg/mL fosfomycin, no non-pathogenic microorganism
Protocol: as §1, §2

[3] = system: S. aureus fosfomycin-resistant mutants; assay: Fosfomycin MIC of bacteria forming colonies on negative-control plates, agar dilution method; type: cell-based, Staphylococcus aureus
Protocol: as §1

[4] = system: Corynebacterium species; conditions: natural resistance; fosfomycin resistance breakpoint >32 μg/mL; cited from earlier work
[5] = system: Corynebacterium species; conditions: natural resistance; mupirocin resistance breakpoint >2 μg/mL; cited from earlier work
[6] = system: S. aureus NCTC 12493; assay: Co-culture on mupirocin-containing blood agar: growth of mupirocin-resistant mutant colonies; type: cell-based, Staphylococcus aureus; conditions: ≈10^9 CFU S. aureus on 0.2 μm filter, blood agar with 8 μg/mL mupirocin, no non-pathogenic microorganism
Protocol: (§3) A 5 McFarland suspension of Corynebacterium aurimucosum CIP 102616 was prepared as described in Example 2, and 300 μl of this suspension (≈10^7 CFU) were inoculated by swabbing on a 90 mm diameter blood agar plate containing 8 μg/mL of mupirocin; 300 μl of saline was inoculated as “negative control” (mupirocin-containing agar plate not inoculated with C. aurimucosum). Materials and methods were otherwise as described in Example 2, except that ≈10^9 CFU of S. aureus (ATCC 29213 or NCTC 12493) were spread out on the 0.2 μm filter placed on top of the agar plate.

[7] = system: S. aureus ATCC 29213; assay: as above; type: cell-based, Staphylococcus aureus; conditions: ≈10^9 CFU S. aureus on 0.2 μm filter, blood agar with 8 μg/mL mupirocin, no non-pathogenic microorganism
Protocol: as §3

[8] = system: C. aurimucosum Rif^R mutant; assay: Rifampicin MIC, agar dilution method; type: cell-based; conditions: Corynebacterium aurimucosum, rifampicin resistance breakpoint MIC >16 μg/mL
Protocol: Spontaneous rifampicin-resistant colonies were obtained in one step by plating ≈10^9 CFU of C. aurimucosum CIP 102616 on blood agar plates supplemented with 20 μg/mL of rifampicin. Five clones were re-isolated on rifampicin-containing plates, and one of them was selected (C. aurimucosum CIP 102616 Rif^R mutant).

[9] = system: S. epidermidis Rif^R mutant; assay: Rifampicin MIC, agar dilution method; type: cell-based; conditions: Staphylococcus epidermidis, rifampicin resistance breakpoint MIC >16 μg/mL
[10] = system: S. aureus rifampicin-resistant mutants; assay: Rifampicin MIC of bacteria forming colonies on negative-control plates, agar dilution method; type: cell-based, Staphylococcus aureus
Protocol: A 5 McFarland suspension of CIP 102616 Rif^R was prepared from a 48 h-culture on Columbia 5% sheep blood agar at 35+/−2° C., and 300 μl of this suspension (≈10^7 CFU) was inoculated by swabbing on a 90 mm diameter blood agar plate containing 20 μg/mL of rifampicin; 300 μl of saline was inoculated as “negative control” (rifampicin-containing agar plate not inoculated with CIP 102616 Rif^R). Materials and methods were otherwise as described in Example 2, except that one 40 μl drop (≈10^7 CFU) was spread out on each filter. Rifampicin MIC values of bacteria forming rifampicin-resistant colonies on “negative-control” plates were determined using the agar dilution method.

C[C@@H]1O[C@@H]1P(=O)(O)O [fosfomycin]
fosfomycin-resistant mutant colonies, fosfomycin alone [1]: colonies of fosfomycin-resistant mutants were detected; also recorded: Fosfomycin-resistant colonies developed
fosfomycin-resistant mutant colonies, fosfomycin alone [2]: colonies of fosfomycin-resistant mutants were detected; also recorded: Fosfomycin-resistant colonies developed
MIC ([3]; Staphylococcus aureus, read-out: fosfomycin MIC values of colonies on negative-control plates): ≥ 32 µg/mL
share of fosfomycin-resistant mutant colonies with MIC of 64 μg/mL or higher ([3]; agar dilution method): ≈ 50%
share of fosfomycin-resistant mutant colonies with MIC of 256 μg/mL or higher ([3]; agar dilution method): ≈ 30%
fosfomycin MIC values [4]: > 256 µg/mL

C/C(=C\C(=O)OCCCCCCCCC(=O)O)C[C@@H]1OC[C@H](C[C@@H]2O[C@H]2[C@@H](C)[C@H](C)O)[C@@H](O)[C@H]1O [mupirocin]
mupirocin MIC values [5]: > 16 µg/mL
mupirocin-resistant mutant colonies, mupirocin alone [6]: Colonies of mupirocin-resistant mutants were detected
mupirocin-resistant mutant colonies, mupirocin alone [7]: Colonies of mupirocin-resistant mutants were detected

CO[C@H]1/C=C/O[C@@]2(C)Oc3c(C)c(O)c4c(O)c(c(/C=N/N5CCN(C)CC5)c(O)c4c3C2=O)NC(=O)/C(C)=C\C=C\[C@H](C)[C@H](O)[C@@H](C)[C@@H](O)[C@@H](C)[C@H](OC(C)=O)[C@@H]1C [rifampicin]
MIC [8]: > 256 µg/mL
MIC [9]: > 256 µg/mL
MIC ([10]; Staphylococcus aureus, read-out: rifampicin MIC values of colonies on negative-control plates): ≥ 16 µg/mL
share of rifampicin-resistant mutants with MIC of 64 μg/mL or higher ([10]; agar dilution method): 100%
share of rifampicin-resistant mutants with MIC of 128 μg/mL or higher ([10]; agar dilution method): ≈ 75%
share of rifampicin-resistant mutants with MIC of 256 μg/mL or higher ([10]; agar dilution method): ≈ 25%
